From patent US10456407B2, “Combination therapy for treating cancer” (Epizyme, Inc., priority 2015, dated 2019)

Test system: SU-DHL10 cells
Test: RT2 Glucocorticoid signaling PCR array, SU-DHL10 (SUDHL10) cell line (Table 4d)
Assay type: cell-based
Conditions: SUDHL10, 4 days, vs DMSO

Question: How did the “AFF1 ΔΔCT” value turn out when C[C@]12C=CC(=O)C=C1CC[C@@H]1[C@@H]2[C@@H](O)C[C@@]2(C)[C@H]1CC[C@]2(O)C(=O)CO [Prednisolone, prednisolone] was run?
Answer: −0.106

Question: What about the “AMPD3 ΔΔCT” value of the same molecule?
Answer: −0.327

Question: What about the “ANGPTL4 ΔΔCT” value of the same molecule?
Answer: −0.105

Question: And the “ANXA4 ΔΔCT” value?
Answer: −0.001

Question: What about the “ATF4 ΔΔCT” value of the same molecule?
Answer: 1.570

Question: What about the “BCL6 ΔΔCT” value of the same molecule?
Answer: 1.067

Question: What about the “CEBPB ΔΔCT” value of the same molecule?
Answer: 2.427

Question: What about the “CREB1 ΔΔCT” value of the same molecule?
Answer: 0.028

Question: What about the “CREB3L4 ΔΔCT” value of the same molecule?
Answer: 1.120

Question: What about the “CREB3 ΔΔCT” value of the same molecule?
Answer: −0.098

Question: And the “CYB561 ΔΔCT” value?
Answer: 0.164

Question: And the “DUSP1 ΔΔCT” value?
Answer: −0.719

Question: And the “EHD3 ΔΔCT” value?
Answer: −0.272

Question: And the “FK8PS ΔΔCT” value?
Answer: −1.599

Question: And the “FOSL2 ΔΔCT” value?
Answer: −1.511

Question: What about the “GDPD1 ΔΔCT” value of the same molecule?
Answer: −0.938

Question: What about the “GOT1 ΔΔCT” value of the same molecule?
Answer: 0.781

Question: What about the “HNRPLL ΔΔCT” value of the same molecule?
Answer: 0.492

Question: And the “KLF9 ΔΔCT” value?
Answer: −1.904

Question: And the “KLF13 ΔΔCT” value?
Answer: −2.191

Question: What about the “MT2A ΔΔCT” value of the same molecule?
Answer: 1.837

Question: What about the “NFKBIA ΔΔCT” value of the same molecule?
Answer: 0.069

Question: What about the “PDCD7 ΔΔCT” value of the same molecule?
Answer: 0.428

Question: What about the “PDP1 ΔΔCT” value of the same molecule?
Answer: 0.512

Question: And the “PER1 ΔΔCT” value?
Answer: −0.675

Question: And the “PIK3R1 ΔΔCT” value?
Answer: −0.040

Question: And the “PLEKHF1 ΔΔCT” value?
Answer: −0.326

Question: And the “POU2F1 ΔΔCT” value?
Answer: −0.060

Question: What about the “POU2F2 ΔΔCT” value of the same molecule?
Answer: −2.104

Question: And the “RA5A3 ΔΔCT” value?
Answer: 0.050

Question: What about the “RGS2 ΔΔCT” value of the same molecule?
Answer: 1.368

Question: What about the “RHOB ΔΔCT” value of the same molecule?
Answer: 0.157

Question: What about the “SESN1 ΔΔCT” value of the same molecule?
Answer: −3.413

Question: What about the “SGK1 ΔΔCT” value of the same molecule?
Answer: 0.975

Question: And the “SLC10A6 ΔΔCT” value?
Answer: −1.545

Question: And the “SLC19A2 ΔΔCT” value?
Answer: 1.693

Question: And the “SLC22A5 ΔΔCT” value?
Answer: 1.923

Question: What about the “SNTA1 ΔΔCT” value of the same molecule?
Answer: −0.066

Question: And the “SPSB1 ΔΔCT” value?
Answer: −0.629

Question: And the “STAT5A ΔΔCT” value?
Answer: 0.381

Question: What about the “TBL1XR1 ΔΔCT” value of the same molecule?
Answer: 0.105

Question: What about the “TNFAIP3 ΔΔCT” value of the same molecule?
Answer: 0.950

Question: And the “TSC22D3 ΔΔCT” value?
Answer: −1.509

Question: And the “USP2 ΔΔCT” value?
Answer: −0.292

Question: And the “USPS4 ΔΔCT” value?
Answer: 0.041

Question: What about the “VLDLR ΔΔCT” value of the same molecule?
Answer: 4.597

Question: And the “ZFP36 ΔΔCT” value?
Answer: −0.420

Question: And the “ZHX3 ΔΔCT” value?
Answer: 0.027

Question: What about the “ZNF281 ΔΔCT” value of the same molecule?
Answer: −0.465

Question: What does the source list for CCN(c1cc(-c2ccc(CN3CCOCC3)cc2)cc(C(=O)NCc2c(C)cc(C)[nH]c2=O)c1C)C1CCOCC1 [Compound 44]?
Answer: AFF1 ΔΔCT: 0.650; AMPD3 ΔΔCT: −0.556; ANGPTL4 ΔΔCT: 0.615; ANXA4 ΔΔCT: −2.475; BCL6 ΔΔCT: 0.640; CEBPB ΔΔCT: 3.019; CREB1 ΔΔCT: −0.051; CREB3L4 ΔΔCT: 0.806; CREB3 ΔΔCT: 0.421; CYB561 ΔΔCT: −2.399; DUSP1 ΔΔCT: 1.099; EHD3 ΔΔCT: −0.855; FK8PS ΔΔCT: 0.042; FOSL2 ΔΔCT: −0.063; GDPD1 ΔΔCT: −1.405; HNRPLL ΔΔCT: 0.071; KLF9 ΔΔCT: −1.127; KLF13 ΔΔCT: −1.636; NFKBIA ΔΔCT: 0.602; PDCD7 ΔΔCT: 0.802; PDP1 ΔΔCT: 0.016; PER1 ΔΔCT: 0.780; PIK3R1 ΔΔCT: 0.831; PLEKHF1 ΔΔCT: 0.469; POU2F1 ΔΔCT: 0.006; POU2F2 ΔΔCT: 0.424; RA5A3 ΔΔCT: 0.385; RGS2 ΔΔCT: 0.072; RHOB ΔΔCT: −1.475; SESN1 ΔΔCT: −1.646; SGK1 ΔΔCT: 1.943; SLC10A6 ΔΔCT: −0.648; SLC19A2 ΔΔCT: −1.413; SLC22A5 ΔΔCT: −1.733; SNTA1 ΔΔCT: 0.531; SPSB1 ΔΔCT: −0.444; STAT5A ΔΔCT: 0.384; TBL1XR1 ΔΔCT: 0.234; TNFAIP3 ΔΔCT: 0.124; TSC22D3 ΔΔCT: 2.709; USP2 ΔΔCT: 0.070; USPS4 ΔΔCT: −0.064; VLDLR ΔΔCT: 4.246; ZFP36 ΔΔCT: 0.215; ZHX3 ΔΔCT: −1.169; ZNF281 ΔΔCT: −0.437
